Measurements as given in patent US20200055871A1, “ACTIVATORS OF THE RETINOIC ACID INDUCIBLE GENE "RIG-I" PATHWAY AND METHODS OF USE THEREOF” (Kineta Immuno-Oncology LLC, priority 2018, published 2020).
Read-outs that look alike come from different tables or passages of the source.

Key:
[1] = test system: IRF3 signaling pathway in THP1-Lucia™ ISG cells; test: THP1-Lucia ISG reporter assay: induction of IRF3-dependent gene expression (secreted luciferase); assay type: cell-based, human; settings: Homo sapiens, THP1-Lucia ISG, read-out: fold increase of IRF3-dependent luciferase activity over background, THP1 ISG; for fold induction at 10 µM: 10 μM compound
Method: The compounds were evaluated in the THP1-Lucia™ ISG (interferon stimulated genes) reporter assay to determine if the compounds activate the IRF3 signaling pathway. The THP1-Lucia™ cells (InvivoGen) express the secreted luciferase (Lucia) reporter gene under the control of an IRF-inducible promoter. The reporter cell line was developed from human monocytic leukemia THP-1 cells.
The promoter was comprised of five IFN-stimulated response elements (ISRE) fused to an ISG54 minimal promoter which is unresponsive to NF-kB or AP-1 pathways. […] The IRF3-deficient THP1-Lucia™ ISG IRF3−/−reporter cell line was generated by CRISPR technology from the parent THP1-Lucia™ ISG reporter cell line.
THP1-Lucia™ ISG cells and IRF3-deficient THP1-Lucia™ ISG IRF3−/−cells were differentiated with PMA (100 ng/ml) and stimulated with compounds at the indicated concentrations (5 to 20 μM), positive control, or not treated (background). Luciferase secretion was quantified using the QUANTI-Luc luciferase assay system (InvivoGen) 18 h after stimulation. Data are shown as fold increase luciferase activity over background in Table 7 and represent the IRF3-dependent ISG54 promoter activity by the THP1-Lucia™ ISG cells in response to compounds. […] The fold increase of compounds (10 μM, *20 μM, **5 μM) induced IRF3 dependent luciferase activity is indicated as follows: “≠” indicates less than 2.4 fold increase; “+” indicates a 2.4-4.9 fold increase; “++” indicates a 5-9.9 fold increase; “+++” indicates a 10-19 fold increase; “++++” indicates a 20-39 fold increase; “+++++” indicates greater than or equal to 40 fold increase.

[2] = test system: RIG-I deficient CT26 RIG-I−/− cells; test: CXCL10 secretion by RIG-I deficient CT26 RIG-I−/− cells (ELISA); assay type: cell-based, murine; settings: compound 5 to 20 μM, 24 h
Method: (§1) The CT26 murine colon carcinoma cell line (ATCC) was used to evaluate the induction of CXCL10 secretion. CXCL10 is an important chemokine in tumor immune biology that recruits tumor-specific T cells to the tumor. To confirm that compound-mediated CXCL10 production was RIG-I specific, RIG-1 deficient CT2-RIG-I−/−cells were generated by Kineta Inc. using CRISPR technology.
(§2) CT26 cells were seeded at a density of 1×10^4 cells per well on a 96-well tissue culture plate in 100 μL of cell culture and cells were incubated at 37° C. and 5% CO2 for 24 hr. Next, CT26 cells were treated with compounds at the indicated concentrations. CXCL10 was quantified by ELISA from supernatants taken 24 h after compound stimulation by use of the CXCL10 Duo Set ELISA kit (Cat #DY466, R&D, Minneapolis, Minn., USA) according to the manufacturer's instructions.
(§3) CXCL10 secretion by CT26 cells in response to compounds (in an amount of 5 to 20 μM) of the present disclosure is shown in Table 8. The compound-induced CXCL10 production was RIG-I dependent, since none of the compounds mediated CXCL10 secretion in RIG-I deficient CT26 RIG-I−/−cells (about 0 pg/mL of CXCL10, or below the level of quantitation). The compounds (10 μM, *20 μM, **5 μM) are indicated in the table as follows: “≠” indicates less than 100 pg/mL; “+” indicates 100-199 pg/mL; “++” indicates 200-399 pg/mL; “+++” indicates 400-799 pg/mL; “++++” indicates 800 to 1599 pg/mL; “+++++” indicates greater than or equal to 1600 pg/ml.

[3] = test system: murine CT26 colon carcinoma cells; test: RIG-I dependent CXCL10 secretion by CT26 cells (ELISA); assay type: cell-based; settings: supernatant 24 h after stimulation
Method: as §1, §2, §3

[4] = PMA-differentiated cells, 18 h after stimulation
[5] = 20 μM compound (*), PMA-differentiated cells, 18 h after stimulation

Compound	fold induction at 10 µM [1, 4]	CXCL10 secretion, CT26 RIG-I−/− [2]	CXCL10 secretion, CT26 ([3]; 10 μM compound)	fold induction at 20 µM ([1]; 18 h)	CXCL10 secretion, CT26 ([3]; 20 μM compound (*))	fold induction at 20 µM [1, 5]
O=C(Nc1nc2ccc3scnc3c2s1)c1ccc2nsnc2c1 [Example 12, N-{3,10-dithia-5,12-diazatricyclo[7.3.0.0^2,^6]dodeca-1,4,6,8,11-pentaen-4-yl}-2,1,3-benzothiadiazole-5-carboxamide]	5 to 9.9	−	++++ (800 to 1599 pg/mL)			
O=C(Nc1nc2ccc3scnc3c2s1)c1ccc2c(c1)CCCC2 [Example 13, N-{3,10-dithia-5,12-diazatricyclo[7.3.0.0^2,^6]dodeca-1,4,6,8,11-pentaen-4-yl}-5,6,7,8-tetrahydronaphthalene-2-carboxamide]		−	+++ (400-799 pg/mL)	5 to 9.9		
O=C(Nc1nc2ccc3scnc3c2s1)c1ccc2sccc2c1 [Example 14, N-{3,10-dithia-5,12-diazatricyclo[7.3.0.0^2,^6]dodeca-1,4,6,8,11-pentaen-4-yl}-1-benzothiophene-5-carboxamide]	10 to 19	−			++* (200-399 pg/mL)	
O=C(Nc1nc2ccc3scnc3c2s1)c1ccc2occc2c1 [Example 15, N-{3,10-dithia-5,12-diazatricyclo[7.3.0.0^2,^6]dodeca-1,4,6,8,11-pentaen-4-yl}-1-benzofuran-5-carboxamide]		−	++ (200-399 pg/mL)			2.4 to 4.9
COc1cc2ccccc2cc1C(=O)Nc1nc2ccc3scnc3c2s1 [Example 16, N-{3,10-dithia-5,12-diazatricyclo[7.3.0.0^2,^6]dodeca-1,4,6,8,11-pentaen-4-yl}-3-methoxynaphthalene-2-carboxamide]	10 to 19	−	++ (200-399 pg/mL)			
Cn1c(C(=O)Nc2nc3ccc4scnc4c3s2)cc2ccccc21 [Example 17, N-{3,10-dithia-5,12-diazatricyclo[7.3.0.0^2,^6]dodeca-1,4,6,8,11-pentaen-4-yl}-1-methyl-1H-indole-2-carboxamide]	10 to 19	−	++ (200-399 pg/mL)			
CCc1nc2c(ccc3nc(NC(=O)c4ccc5ccccc5c4)sc32)s1 [Example 18, N-{11-ethyl-3,10-dithia-5,12-diazatricyclo[7.3.0.0^2,^6]dodeca-1,4,6,8,11-pentaen-4-yl}naphthalene-2-carboxamide]	20 to 39	−			+* (100-199 pg/mL)	
CSc1nc2c(ccc3nc(NC(=O)c4ccc5ccccc5c4)sc32)s1 [Example 19, N-[11-(methylsulfanyl)-3,10-dithia-5,12-diazatricyclo[7.3.0.0^2,^6]dodeca-1,4,6,8,11-pentaen-4-yl]naphthalene-2-carboxamide]	10 to 19	−			+++* (400-799 pg/mL)	
Cn1ccc2ccc(C(=O)Nc3nc4ccc5scnc5c4s3)cc21 [Example 20, N-{3,10-dithia-5,12-diazatricyclo[7.3.0.0^2,^6]dodeca-1,4,6,8,11-pentaen-4-yl}-1-methyl-1H-indole-6-carboxamide]	10 to 19	−	+++ (400-799 pg/mL)			
O=C(Nc1nc2ccc3scnc3c2s1)c1ccc(-c2ccccc2)cc1 [Example 21, N-{3,10-dithia-5,12-diazatricyclo[7.3.0.0^2,^6]dodeca-1,4,6,8,11-pentaen-4-yl}-[1,1′-biphenyl]-4-carboxamide]	10 to 19	−	+ (100-199 pg/mL)			
COc1nc2c(ccc3nc(NC(=O)c4ccc5ccccc5c4)sc32)s1 [Example 22, N-{11-methoxy-3,10-dithia-5,12-diazatricyclo[7.3.0.0^2,^6]dodeca-1,4,6,8,11-pentaen-4-yl}naphthalene-2-carboxamide]	20 to 39	−	++ (200-399 pg/mL)			
Cc1nc2c(ccc3nc(NC(=O)c4ccc5ccccc5c4)sc32)s1 [Example 23, N-{11-methyl-3,10-dithia-5,12-diazatricyclo[7.3.0.0^2,^6]dodeca-1,4,6,8,11-pentaen-4-yl}naphthalene-2-carboxamide]	5 to 9.9	−			+++++* (greater than or equal to 1600 pg/ml)	
O=C(Nc1nc2ccc3scnc3c2s1)c1cc2ccccc2cc1OCCN1CCOCC1 [Example 24, N-{3,10-dithia-5,12-diazatricyclo[7.3.0.0^2,^6]dodeca-1,4,6,8,11-pentaen-4-yl}-3-[2-(morpholin-4-yl)ethoxy]naphthalene-2-carboxamide]	20 to 39	−	+++ (400-799 pg/mL)			
O=C(Nc1nc2ccc3scnc3c2s1)c1cc2ccccc2cc1OCCN1CCCCC1 [Example 25, N-{3,10-dithia-5,12-diazatricyclo[7.3.0.0^2,^6]dodeca-1,4,6,8,11-pentaen-4-yl}-3-[2-(piperidin-1-yl)ethoxy]naphthalene-2-carboxamide]	2.4 to 4.9	−	++ (200-399 pg/mL)			
O=C(Nc1nc2ccc3scnc3c2s1)c1cc2ccccc2cc1OCCC1CCOCC1 [Example 27, N-{3,10-dithia-5,12-diazatricyclo[7.3.0.0^2,^6]dodeca-1,4,6,8,11-pentaen-4-yl}-3-[2-(oxan-4-yl)ethoxy]naphthalene-2-carboxamide]		−	++ (200-399 pg/mL)			5 to 9.9
O=C(Nc1nc2ccc3scnc3c2s1)c1cc2ccccc2cc1OCCCCN1CCOCC1 [Example 28, N-{3,10-dithia-5,12-diazatricyclo[7.3.0.0^2,^6]dodeca-1,4,6,8,11-pentaen-4-yl}-3-[4-(morpholin-4-yl)butoxy]naphthalene-2-carboxamide]	2.4 to 4.9	−	++ (200-399 pg/mL)			
COc1nc2c(ccc3nc(NC(=O)c4cc5ccccc5cc4OCCN4CCOCC4)sc32)s1 [Example 29, N-{11-methoxy-3,10-dithia-5,12-diazatricyclo[7.3.0.0^2,^6]dodeca-1,4,6,8,11-pentaen-4-yl}-3-[2-(morpholin-4-yl)ethoxy]naphthalene-2-carboxamide]	10 to 19	−	+ (100-199 pg/mL)			
COc1nc2c(ccc3nc(NC(=O)c4cc5ccccc5cc4OCCN4CCCCC4)sc32)s1 [Example 30, N-{11-methoxy-3,10-dithia-5,12-diazatricyclo[7.3.0.0^2,^6]dodeca-1,4,6,8,11-pentaen-4-yl}-3-[2-(piperidin-1-yl)ethoxy]naphthalene-2-carboxamide]	10 to 19	−	+++ (400-799 pg/mL)			
